The values below come from PubChem BioAssay (NCI).

Holding throughout (assay): NCI anticancer screen, dose series, 48 h
The test system of assay [1] is KM20L2 colon.
The test system of assay [2] is XF 498 CNS.
Assay [3] has as its system LXFL 529 NSCLC.
The subject of assay [4] is DLD-1 colon.
Assay [5] concerns DMS 114 small cell lung.
Assay [6] deals with MDA-N.
Assay [7] concerns RXF-631 renal.
Assay [8] concerns DMS 273 small cell lung.
Assay [9] has as its system HOP-18 NSCLC.
Assay [10] concerns SN12K1 renal.

Where “and” joins values, the source holds several entries; their conditions need not be identical. Equal values may be shown once.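 Exposure lasted 48 hours, with cells grown in 96-well plates and compounds tested at five concentrations. GI50 = concentration required for 50% inhibition of growth. TGI: concentration producing complete growth inhibition.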

With `N#CC(/C(=N/NC(=O)C(=O)NN)C(=O)Nc1nc([N+](=O)[O-])cs1)c1ccc(Cl)cc1` (stereo not given), the TGI in assay [1], in assay [2], in assay [3], in assay [4] and in [5] was above 100 µM in each case.

`CCC1C(=O)OCc2c1cc1n(c2=O)Cc2cc3ccccc3nc2-1` (stereo not given) gave a TGI in assay [6] above 100 µM.

`CCOC(=O)/C(=N\OC)C(O)C(F)(F)F` (stereo not given) registered a TGI in [6] above 100 µM.

Molecule `COc1ccc2c(c1O)C13CCN(C)C(C2)C1CCC1(C3)OCCO1` (stereo not given) registered a TGI in assay [6] above 100 µM.

With `S=C(N/N=C(/c1ccccc1)c1ccccn1)N1CCCCC1`, in [6], the GI50 was 0.118 µM; the TGI was 2.26 µM and 2.62 µM.

For `CC(=O)Oc1cc(C)c2c(c1OC(C)=O)CC1(O2)[C@@H](C)CCC2[C@@]3(C)CC[C@H](OC(C)=O)C(C)(C)C3CC[C@]21C` (stereo not given in full), the TGI in assay [1] is 28.3 µM; in assay [7], 19.9 µM; in assay [8], 4.46 µM; in assay [3], 16 µM; in assay [4], 15.1 µM; in assay [5], 4.49 µM. This molecule registered a TGI in assay [9] of 6.81 µM.

With `COC(c1cccc(C(O)(C(F)(F)F)C(F)(F)F)c1)(C(F)(F)F)C(F)(F)F`, the TGI in assay [1] came to 31.2 µM; in assay [8], 34.8 µM; in assay [2] it was 28.2 µM; in assay [3], 32 µM; in assay [4] it was 34.6 µM; in [5] it was 32.6 µM. The TGI in assay [9] was determined as 32.1 µM.

As for `Nc1nc(N)c(Cn2ccnc2)c(=O)[nH]1`, in assay [6], the TGI is above 100 µM.

As for `CSc1cccc(-n2c3nc(=O)n(C)c(=O)c-3nc3ccccc32)c1`, the TGI was determined as 15.4 µM in assay [1]; 13.2 µM in assay [8]; 13.4 µM in assay [2]; 26.2 µM in assay [3]; 32.6 µM in assay [4]; 14.9 µM in assay [5]. In [9], this molecule displayed a TGI of 26.2 µM.

On to `O=[N+]([O-])c1ccccc1N=Nc1c(O)[nH]c2ccc(Br)cc12`, for which the TGI in assay [6] is above 60.5 µM.

Take `CC(=O)O[C@@]12CO[C@@H]1C[C@H](O)[C@@]1(C)C(=O)[C@H](O)C3=C(C)[C@@H](OC(=O)[C@H](O)[C@@H](NC(=O)OC(C)(C)C)c4ccccc4)C[C@@](O)([C@@H](OC(=O)c4ccccc4)[C@H]21)C3(C)C`: the GI50 in [1] is 0.00818 µM; in assay [7], 0.297 µM; in [8] it was 0.0112 µM and 0.0271 µM; in [2], 0.0397 µM and 0.0317 µM; in [3], 0.0356 µM and 0.0257 µM; in assay [4], 0.0352 µM and 0.0338 µM. Moreover, the GI50 in assay [5] was 0.00368 µM and 0.00371 µM. In addition, the TGI was 0.022 µM in assay [1]; above 56.7 µM in assay [7]; 17.4 µM in [8]; above 100 µM in assay [3]; above 75.4 µM in [4]; 0.0525 µM and 0.0223 µM in assay [5]. In assay [9], this molecule displayed a TGI of 74.5 µM.

In turn, `Nc1cc(C(=O)O)[nH]c(=O)n1` gave a TGI in assay [6] above 100 µM.

In the case of `CCCCCCCC(=O)NCC(O)CNC(=O)CCCCCCC`, the TGI in [1], in assay [8], in [2], in assay [3], in [4] and in assay [5] was above 100 µM throughout. The same molecule displayed a TGI in [9] above 100 µM.

Regarding `C/C=C/C1=C(Cl)C(=O)[C@@H](Cl)[C@@]1(O)C(=O)OC`, the TGI in assay [1] turned out to be 15.9 µM; in [7], 43.9 µM; in assay [10], 4.48 µM; in assay [8] it was 9.61 µM; in assay [2], 13.3 µM; in assay [3], 7.41 µM. For the same molecule, the TGI in assay [4] was 9.35 µM; in assay [5] it was above 34.4 µM; in assay [9], 11 µM.

For the molecule `Cc1cc(Cl)cc2c(N=Nc3ccccc3[N+](=O)[O-])c(O)[nH]c12`, the TGI in assay [6] was above 100 µM.

In the case of `C=C(C)C1Cc2c(cc(OC)c3c(=O)c4cccc(O)c4oc23)O1` (stereo not given), the TGI in [6] was 53.1 µM.

With `Nc1nc2sc3ccccc3c(=O)n2n1`, the TGI in assay [1], in assay [8], in assay [2], in assay [3], in [4] and in assay [5] was above 100 µM each time. Besides, the TGI in [9] was above 100 µM.

As to `CCN(CC)CCCn1cnc2ncccc2c1=O`, the TGI in assay [8], in assay [3], in assay [4] and in [5] was above 100 µM each time.

`CC(=O)N1c2ccccc2C2=CC3C4C(=O)N(c5ccccc5)C(=O)C4C21C1C(=O)N(c2ccccc2)C(=O)C31` (stereo not given): the TGI was 70 µM in [1]; 76.8 µM in [2]; above 100 µM in assay [3]; above 100 µM in assay [4]; 44.1 µM in assay [5]; above 100 µM in assay [9].

For the molecule `CC1=C(/C=C/C(=O)O)C(C)(C)CCC1`, the TGI in [6] is above 100 µM.

For `O=C(Nc1ccccc1)c1nn(-c2cc(S(=O)(=O)O)c([N+](=O)[O-])cc2Cl)[n+](-c2cc(S(=O)(=O)[O-])c([N+](=O)[O-])cc2Cl)n1`, in [6], the TGI was above 100 µM.

For the molecule `Cc1noc2cccc(OCc3ccccc3)c12`, the TGI in [1], in [7], in [8], in assay [2], in [3] and in assay [4] was above 100 µM throughout. Besides, the TGI in assay [5] and in [9] was above 100 µM in each case.

For `COc1ccc2c(c1)C(=O)N1CCOC1C2C(=O)O` (stereo not given), the TGI in [1] was above 100 µM; in [7], above 100 µM; in [8], 11.2 µM; in assay [2], above 100 µM; in assay [3] it was above 100 µM; in [4], above 100 µM. The TGI in assay [5] and in [9] was above 100 µM each time.

In assay [6], `Cc1nc(-c2ccccc2)c(Cc2ccccc2O)c(=O)[nH]1` gave a TGI above 100 µM.

Consider `CCC[CH2][Sn]([CH2]CCC)([O]C(=O)c1cc(F)ccc1F)[O][Sn]([CH2]CCC)([CH2]CCC)[O]C(=O)c1cc(F)ccc1F`, for which the GI50 is 0.779 µM in [1]; 0.331 µM in assay [8]; 0.16 µM in [2]; 0.0185 µM in [3]; 0.206 µM in assay [4]; 0.239 µM in assay [6]. The values for the GI50 in assay [5] and in assay [9] were 0.0832 µM and 0.654 µM, respectively. Moreover, the TGI was 2.11 µM in [1]; 1.56 µM in [8]; 0.305 µM in assay [2]; 0.155 µM in [3]; 0.974 µM in assay [4]; 1.46 µM in assay [6]. Moreover, the TGI in [5] stood at 0.25 µM; in assay [9], 1.67 µM.

Take `O=C(O)C1=CCCc2ccc3ccccc3c21`: the TGI in assay [1], in assay [7], in [8], in [2], in assay [3] and in assay [5] was above 100 µM each time. The same molecule registered a TGI in [9] above 100 µM.

For `[Cl][Sn]([Cl])([c]1ccccc1)[c]1ccccc1`, the GI50 in [1] is 14.8 µM; in assay [2] it was 2.58 µM; in [3] it was 1.53 µM; in assay [4] it was 4.51 µM; in assay [5], 2.67 µM; in assay [9] it was 17.9 µM. In addition, the TGI in assay [1] was 28 µM; in [2], 6.21 µM; in [3] it was 2.93 µM; in assay [4] it was 17.5 µM; in assay [5] it was above 100 µM; in assay [9], 31.8 µM.

In the case of `O=C1c2cccnc2C(=O)C2C3C=CC(C3)C12` (stereo not given), the TGI in [6] is 13.2 µM.

With `CCOC(=O)c1c(-c2ccccc2)oc(-c2ccccc2)c1C(=O)OCC`, the TGI in assay [1], in assay [8], in assay [2], in assay [3], in assay [4] and in [5] was above 100 µM throughout. Besides, the TGI in assay [9] was above 100 µM.
